Test results from patent publication US12396459B2, “Synergistically effective herbicide composition comprising pyridate and at least one defined 4-HPPD inhibitor” (BELCHIM CROP PROTECTION NV, priority 2018, dated 2025).

Assays:
Assay type in all cases: in vivo
Brassica napus = assay: Field trial post-emergence in maize: BRSNN; details: # = 1, g a.c./ha: PYR 300, MES 100, PYR + MES 300 + 90
Description: (§1) Herbicidal activity of herbicide compositions according to the first aspect of the present invention with regard to different types of unwanted vegetation was determined during trials performed on test fields (field trials). Individual compositions comprising pyridate and individual compositions comprising a defined 4-HPPD inhibitor are compared with a herbicide composition according to the invention comprising both pyridate and a defined 4-HPPD inhibitor. The expected activity of the combination of the active compounds pyridate and a defined 4-HPPD inhibitor is calculated according to above mentioned calculation method by Colby, in order to evaluate a synergistic effect between pyridate and a defined 4-HPPD inhibitor.
(§2) Herbicidal activity was determined by applying herbicide compositions on emerged unwanted vegetation on fields where maize was cultivated. Pyridate and a defined 4-HPPD inhibitor were applied as a tank mixture by mixing these active compounds prior to use in a spray tank. The corresponding mixture was in the form of a spray liquor. Besides, spray liquors of individual compositions comprising pyridate and of individual compositions comprising a defined 4-HPPD inhibitor were used. Test plants of unwanted vegetation with a growth stage corresponding to BBCH 10-18 (according to the extended BBCH-scale) were sprayed with the active compound preparations such that particular desired amounts of active compounds are applied per unit area. Spray liquor was diluted with water to arrive at an application volume of 50 to 450 L/ha. At a specified number of days after application (DAA), the degree of damage to the unwanted vegetation is rated in % of plants of unwanted vegetation that were killed, which was assessed by visually controlling the plants.

Digitaria sanguinalis = assay: Field trial post-emergence in maize: DIGSA; details: g a.c./ha: PYR 300, MES 100, PYR + MES 300 + 90
Description: as §1, §2

Galinsoga parviflora = assay: Field trial post-emergence in maize: GASPA; details: 31-48 DAA; # = 3; g a.c./ha: PYR 300, MES 100, PYR + MES 300 + 90
Description: as §1
(§3) Herbicidal activity was determined by applying herbicide compositions on emerged unwanted vegetation on fields where maize was cultivated. Pyridate and a defined 4-HPPD inhibitor were applied as a tank mixture by mixing these active compounds prior to use in a spray tank. The corresponding mixture was in the form of a spray liquor. […] At a specified number of days after application (DAA), the degree of damage to the unwanted vegetation is rated in % of plants of unwanted vegetation that were killed, which was assessed by visually controlling the plants.

Persicaria maculosa = assay: Field trial post-emergence in maize: POLPE; details: for herbicidal effect (h.e.): g a.c./ha: PYR 300, MES 100, PYR + MES 300 + 90
Description: as §1, §2

Solanum nigrum = assay: Field trial post-emergence in maize: SOLNI; details: for herbicidal effect (h.e.): g a.c./ha: PYR 300, MES 100, PYR + MES 300 + 90
Description: as §1, §2

Thlaspi arvense = assay: Field trial post-emergence in maize: THLAR; details: # = 1, g a.c./ha: PYR 300, MES 100, PYR + MES 300 + 90
Description: as §1, §2

Xanthium spinosum = assay: Field trial post-emergence in maize: XANSP; details: 7-14 DAA; # = 3; g a.c./ha: PYR 300, MES 100, PYR + MES 300 + 90
Description: as §1, §3

[1] = test system: Brassica rapa Canola cultivars; assay: Field trial post-emergence in maize: BRSRC; details: 13-14 DAA; # = 1; g a.c./ha: PYR 450, MES 144, PYR + MES 450 + 144
Description: as §1, §2

Matricaria chamomilla = assay: Examples 6-8 herbicidal effect: MATCH; details: 7 DAA
Setaria verticillata = assay: Examples 6-8 herbicidal effect: SETVE; details: 7 DAA
[2] = test system: unwanted vegetation (UVEG); assay: Field trials Examples 1-5 (incl. Table 1), post-emergence on unwanted vegetation in maize; details: 14-20 DAA
Description: as §1, §2

Convolvulus arvensis = assay: Field trial post-emergence in maize: CONAR
Description: as §1, §2
(§4) Example 1 concerns a herbicide composition comprising a combination of pyridate and mesotrione, which was applied post-emergence on unwanted vegetation on a field where maize was cultivated, according to the test conditions mentioned above.

Kickxia elatine = assay: Field trial post-emergence in maize: KICEL
Description: as §1, §2, §4

Lamium purpureum = assay: Field trial post-emergence in maize: LAMPU
Description: as §1, §2, §4

Mercurialis annua = assay: Field trial post-emergence in maize: MERAN
Description: as §1, §2, §4

Polygonum aviculare = assay: Field trial post-emergence in maize: POLAV
Description: as §1, §2, §4

Viola arvensis = assay: Field trial post-emergence in maize: VIOAR
Description: as §1, §2, §4

[3] = g a.c./ha: MES 50, PYR + SMO 300 + 800
[4] = g a.c./ha: MES 80, PYR + MES 300 + 50

## CS(=O)(=O)c1ccc(C(=O)C2C(=O)CCCC2=O)c([N+](=O)[O-])c1 [MES, 2-(4-methylsulfonyl-2-nitrobenzoyl) cyclohexane-1,3-dione]
Brassica napus; 7-14 DAA
  herbicidal effect (h.e.): 86%
Brassica napus; 18-28 DAA
  herbicidal effect (h.e.): 85%
Brassica napus; 31-48 DAA
  herbicidal effect (h.e.): 84%
Digitaria sanguinalis; 7-14 DAA, # = 2
  herbicidal effect (h.e.): 53%
Digitaria sanguinalis; 18-28 DAA, # = 2
  herbicidal effect (h.e.): 47%
Digitaria sanguinalis; 31-48 DAA, # = 1
  herbicidal effect (h.e.): 54%
Galinsoga parviflora
  herbicidal effect (h.e.): 97%
Persicaria maculosa; 7-14 DAA, # = 3
  herbicidal effect (h.e.): 91%
Persicaria maculosa; 31-48 DAA, # = 4
  herbicidal effect (h.e.): 89%
Persicaria maculosa; POLPE 14-20 DAA 45 g a.c./ha
  MES h.e.: 83%
Persicaria maculosa; POLPE 14-20 DAA 90 g a.c./ha
  MES h.e.: 98%
Persicaria maculosa; POLPE 14-20 DAA 135 g a.c./ha
  MES h.e.: 98%
Persicaria maculosa; POLPE 24-31 DAA 45 g a.c./ha
  MES h.e.: 93%
Solanum nigrum; 18-28 DAA, # = 7
  herbicidal effect (h.e.): 91%
Solanum nigrum; 31-48 DAA, # = 6
  herbicidal effect (h.e.): 93%
Solanum nigrum; SOLNI 14-20 DAA 45 g a.c./ha
  MES h.e.: 95%
Thlaspi arvense; 7-14 DAA
  herbicidal effect (h.e.): 76%
Thlaspi arvense; 18-28 DAA
  herbicidal effect (h.e.): 97%
Xanthium spinosum
  herbicidal effect (h.e.): 97%
[1]
  herbicidal effect (h.e.): 88%
Matricaria chamomilla; [3]
  herbicidal effect (h.e.): 25%
Matricaria chamomilla; [4]
  herbicidal effect (h.e.): 53%
Setaria verticillata; [3]
  herbicidal effect (h.e.): 0%
Setaria verticillata; [4]
  herbicidal effect (h.e.): 3%
[2]; VIOAR (Viola arvensis), # = 3, first VIOAR block (r259-264), MES 135 g a.c./ha
  MES h.e. (%): 98%
[2]; VIOAR, # = 3, second VIOAR block (r265-272), MES 45 g a.c./ha
  MES h.e. (%): 70%
[2]; VIOAR, # = 3, second VIOAR block (r265-272), MES 90 g a.c./ha
  MES h.e. (%): 84%
[2]; VIOAR, # = 3, second VIOAR block (r265-272), MES 135 g a.c./ha
  MES h.e. (%): 87%
Convolvulus arvensis; CONAR 14-20 DAA 45 g a.c./ha
  MES h.e.: 40%
Convolvulus arvensis; CONAR 14-20 DAA 90 g a.c./ha
  MES h.e.: 68%
Convolvulus arvensis; CONAR 14-20 DAA 135 g a.c./ha
  MES h.e.: 83%
Convolvulus arvensis; CONAR 24-31 DAA 135 g a.c./ha
  MES h.e.: 80%
Kickxia elatine; KICEL 14-20 DAA 45 g a.c./ha
  MES h.e.: 0%
Kickxia elatine; KICEL 14-20 DAA 90 g a.c./ha
  MES h.e.: 8%
Kickxia elatine; KICEL 14-20 DAA 135 g a.c./ha
  MES h.e.: 0%
Kickxia elatine; KICEL 24-31 DAA 45 g a.c./ha
  MES h.e.: 0%
Kickxia elatine; KICEL 24-31 DAA 90 g a.c./ha
  MES h.e.: 0%
Kickxia elatine; KICEL 24-31 DAA 135 g a.c./ha
  MES h.e.: 0%
Lamium purpureum; LAMPU 14-20 DAA 45 g a.c./ha
  MES h.e.: 93%
Lamium purpureum; LAMPU 14-20 DAA 90 g a.c./ha
  MES h.e.: 98%
Lamium purpureum; LAMPU 14-20 DAA 135 g a.c./ha
  MES h.e.: 99%
Lamium purpureum; LAMPU 24-31 DAA 45 g a.c./ha
  MES h.e.: 89%
Lamium purpureum; LAMPU 24-31 DAA 90 g a.c./ha
  MES h.e.: 95%
Mercurialis annua; MERAN 14-20 DAA 45 g a.c./ha
  MES h.e.: 95%
Mercurialis annua; MERAN 24-31 DAA 45 g a.c./ha
  MES h.e.: 70%
Polygonum aviculare; POLAV 14-20 DAA 45 g a.c./ha
  MES h.e.: 61%
Polygonum aviculare; POLAV 14-20 DAA 90 g a.c./ha
  MES h.e.: 76%
Polygonum aviculare; POLAV 24-31 DAA 90 g a.c./ha
  MES h.e.: 58%
Viola arvensis; VIOAR 14-20 DAA 45 g a.c./ha
  MES h.e.: 84%
Viola arvensis; VIOAR 14-20 DAA 90 g a.c./ha
  MES h.e.: 95%
Viola arvensis; VIOAR 14-20 DAA 135 g a.c./ha
  MES h.e.: 98%
